In US20110250184A1, “METHODS FOR DETERMINING EFFICACY OF A THERAPEUTIC REGIMEN AGAINST DELETERIOUS EFFECTS OF CYTOTOXIC AGENTS IN HUMAN” (priority 2008, published 2011):

Test system: human bone marrow cells
Assay: In vitro radiation protection of human bone marrow cells (methocult CFU)
Format: cell-based
Protocol: FIG. 3. In vitro radiation protection of human bone marrow cells. Human bone marrow cells were treated with increasing concentrations of ON 01210.Na for 3 hours, and then irradiated with increasing doses of ionizing radiation. The cells were plated into methocult and the total number of CFUs was determined 14 days later.
Radiation protection assays were then performed (FIG. 3). Cells were treated with ON 01210.Na for 3 hours, irradiated, and plated in methocult. The total number of colony forming units was determined 14 days later. […] This compared very favorably when analyzed against protection studies using amifostine as a positive control.
Human bone marrow cells were treated with increasing concentrations of ON 01210.Na for 3 hours, and then irradiated with increasing doses of ionizing radiation. The cells were plated into methocult and the total number of CFUs was determined 14 days later.
When we plotted the survival curve at the optimal concentration of ON 01210.Na (FIG. 3C) we were able to calculate a dose reduction factor (DRF) of 1.6. We also tested the radiation protection activity of amifostine. Amifostine concentrations were selected that closely mimicked the therapeutic plasma concentrations. […] The calculated DRF value of 1.5 was determined from these experiments.

## NCCCNCCSP(=O)(O)O [amifostine, reference compound]
amifostine
  optimal concentration for radiation protection: 0.25 mM
Amifostine 0.25 mM (optimal)
  dose reduction factor (DRF): 1.5
Data not shown
  range of concentrations that protected cells: narrow range of concentrations
